The source made the active and inactive calls. The rule behind the calls is not given here.

A short description of data set [1]: Inhibition of mouse heart mitochondrial F0F1-ATP synthase hydrolytic activity incubated for 10 mins by microplate reader analysis. Format: mitochondria, Mitochondria.
The species entered for data set [2] is Mus musculus. Nature of the data set: Inhibition of mouse heart mitochondrial F0F1-ATP synthase hydrolytic activity at 200 uM incubated for 10 mins by microplate reader analysis relative to control. As to conditions: Mitochondria.
In data set [3] the test system is Mus musculus. Description: Cardioprotective activity against cardiac ischemia/reperfusion induced C57BL/6J mouse model assessed as effect on GSK3beta level at 3.5 mg/kg, iv preincubated under ischemic condition for 30 mins followed by compound addition for 5 mins and subsequent incubation under reperfusion for 10 mins by Western blot analysis. It is filed as functional, organism-based. As to conditions: time 15.0 min.

Data set [4] concerns Mus musculus. Description: Cardioprotective activity against cardiac ischemia/reperfusion induced C57BL/6J mouse model assessed as effect on ERK1/2 level at 3.5 mg/kg, iv preincubated under ischemic condition for 30 mins followed by compound addition for 5 mins and subsequent incubation under reperfusion for 10 mins by Western blot analysis. Format: functional, organism-based. As to conditions: time 15.0 min. A general note: In western blotting, separated proteins are transferred to a membrane and probed.

For data set [5], the system named is Mus musculus. Nature of the data set: Cardioprotective activity against cardiac ischemia/reperfusion induced C57BL/6J mouse model assessed as increase in ERK1/2 phosphorylation at 3.5 mg/kg, iv preincubated under ischemic condition for 30 mins followed by compound addition for 5 mins and subsequent incubation under reperfusion for 10 mins by Western blot analysis. Format: functional, organism-based. As to conditions: time 15.0 min.

The test system of data set [6] is Mus musculus. Nature of the data set: Cardioprotective activity against cardiac ischemia/reperfusion induced C57BL/6J mouse model assessed as effect on Akt level at 3.5 mg/kg, iv preincubated under ischemic condition for 30 mins followed by compound addition for 5 mins and subsequent incubation under reperfusion for 10 mins by Western blot analysis. The following applies: time 15.0 min. It is filed as functional, organism-based.

The subject of data set [7] is H9c2. Description: Cytotoxicity against rat H9c2 cells assessed as reduction in cell survival at 10 to 100 uM incubated for 24 hrs by MTT assay. It is filed as toxicity, cell-based. The following applies: h9c2, 24 h, dose 10-100 µM. For orientation: Tetrazolium assays rely on reduction of a dye to a coloured formazan, in cell work by metabolically active cells.
Data set [8] relates to Mus musculus. Description: Cardioprotective activity against cardiac ischemia/reperfusion induced C57BL/6J mouse model assessed as reduction in cardiac infarct size at 5 mg/kg, iv measured after 5 mins of myocardial ischemia and 2 hrs of reperfusion (Rvb= 45 +/- 2.2 %). Format: functional. Details: scale not given: the % may be the effect or the level left. The following applies: time 125 min, 2.083 h.

Data set [9] has as its system H9c2. Description: Induction of mitochondrial membrane potential loss in rat H9c2 cells assessed as increase in fluorescence intensity at 50 to 100 uM in presence of rotenone by TMRM dye based assay. It is filed as cell-based. The following applies: dose 50-100 µM.
The test system of data set [10] is Mus musculus. Nature of the data set: Cardioprotective activity against cardiac ischemia/reperfusion induced C57BL/6J mouse model assessed as increase in Bcl-XL expression at 3.5 mg/kg, iv preincubated under ischemic condition for 30 mins followed by compound addition for 5 mins and subsequent incubation under reperfusion for 10 mins by Western blot analysis. It is filed as functional, organism-based. As to conditions: time 15.0 min.

In data set [11] the test system is Mus musculus. Nature of the data set: Cardioprotective activity against cardiac ischemia/reperfusion induced C57BL/6J mouse model assessed as increase in cleaved caspase-3 expression at 3.5 mg/kg, iv preincubated under ischemic condition for 30 mins followed by compound addition for 5 mins and subsequent incubation under reperfusion for 10 mins by Western blot analysis. It is filed as functional, organism-based. As to conditions: time 15.0 min.

Data set [12] concerns H9c2. Description: Cytotoxicity against rat H9c2 cells assessed as reduction in cell survival at 0.1 to 100 uM incubated for 24 hrs by MTT assay. It is filed as toxicity, cell-based. As to conditions: h9c2, 24 h, dose 0.1-100 µM.
For data set [13], the system named is Mus musculus. Nature of the data set: Cardioprotective activity against cardiac ischemia/reperfusion induced C57BL/6J mouse model assessed as reduction in cardiac infarct size at 3.5 mg/kg, iv prior to 5 mins of myocardial ischemia and 2 hrs of reperfusion (Rvb= 45.4 +/- 1.8 %). It is filed as functional. Details: scale not given: the % may be the effect or the level left. The following applies: time 125 min, 2.083 h.

The subject of data set [14] is Mus musculus. Nature of the data set: Cardioprotective activity against cardiac ischemia/reperfusion induced C57BL/6J mouse model assessed as increase in ATP level at 3.5 mg/kg, iv preincubated under ischemic condition for 30 mins followed by compound addition for 5 mins and subsequent incubation under reperfusion for 10 mins. As to conditions: time 15.0 min. It is filed as functional, organism-based.

The species named for data set [15] is Mus musculus. Description: Inhibition of mouse heart mitochondrial F0F1-ATP synthase hydrolytic activity at 200 uM incubated for 10 mins by microplate reader analysis. The following applies: Mitochondria.
Data set [16] deals with Mus musculus. Description: Cardioprotective activity against cardiac ischemia/reperfusion induced C57BL/6J mouse model assessed as reduction in cardiac infarct size at 5 mg/kg, iv measured after 25 mins of myocardial ischemia and 2 hrs of reperfusion (Rvb= 47.8 +/- 3.4 %). Details: scale not given: the % may be the effect or the level left. It is filed as functional. The following applies: time 145 min, 2.417 h.

For data set [17], the system named is Mus musculus. Description: Cardioprotective activity against cardiac ischemia/reperfusion induced C57BL/6J mouse model assessed as increase in Akt phosphorylation at 3.5 mg/kg, iv preincubated under ischemic condition for 30 mins followed by compound addition for 5 mins and subsequent incubation under reperfusion for 10 mins by Western blot analysis. It is filed as functional, organism-based. As to conditions: time 15.0 min.

Data set [18] deals with H9c2. Description: Induction of mitochondrial membrane potential loss in rat H9c2 cells assessed as increase in fluorescence intensity at 0.1 to 100 uM by TMRM dye based assay. Format: cell-based. As to conditions: dose 0.1-100 µM.
Data set [19] concerns Mus musculus. Nature of the data set: Cardioprotective activity against cardiac ischemia/reperfusion induced C57BL/6J mouse model assessed as increase in GSK3beta phosphorylation at S9 fraction at 3.5 mg/kg, iv preincubated under ischemic condition for 30 mins followed by compound addition for 5 mins and subsequent incubation under reperfusion for 10 mins by Western blot analysis. As to conditions: time 15.0 min. Format: functional, organism-based.

In data set [20] the test system is Mus musculus. Nature of the data set: Cardioprotective activity against cardiac ischemia/reperfusion induced C57BL/6J mouse model assessed as increase in Bax expression at 3.5 mg/kg, iv preincubated under ischemic condition for 30 mins followed by compound addition for 5 mins and subsequent incubation under reperfusion for 10 mins by Western blot analysis. It is filed as functional, organism-based. The following applies: time 15.0 min.

Data set [21] deals with H9c2. Nature of the data set: Induction of mitochondrial membrane potential loss in rat H9c2 cells assessed as increase in fluorescence intensity at 10 to 100 uM in presence of rotenone by TMRM dye based assay. As to conditions: dose 10-100 µM. It is filed as cell-based.
Data set [22] relates to H9c2. Description: Cytotoxicity against rat H9c2 cells assessed as reduction in cell viability at 50 to 100 uM incubated for 24 hrs by MTT assay. It is filed as toxicity, cell-based. The following applies: h9c2, 24 h, dose 50-100 µM.
Data set [23] deals with H9c2. Nature of the data set: Cytotoxicity against rat H9c2 cells assessed as reduction in cell viability at 10 to 100 uM incubated for 24 hrs by MTT assay. It is filed as toxicity, cell-based. As to conditions: h9c2, 24 h, dose 10-100 µM.
Data set [24] relates to H9c2. Description: Induction of mitochondrial membrane potential loss in rat H9c2 cells assessed as increase in fluorescence intensity at 3 uM by TMRM dye based assay. It is filed as cell-based.
Data set [25] relates to H9c2. Nature of the data set: Induction of mitochondrial membrane potential loss in rat H9c2 cells assessed as increase in fluorescence intensity at 3 uM in presence of rotenone by TMRM dye based assay. Format: cell-based.
Data set [26] deals with H9c2. Description: Induction of mitochondrial membrane potential loss in rat H9c2 cells assessed as increase in fluorescence intensity at 10 uM by TMRM dye based assay. Format: cell-based.
The subject of data set [27] is H9c2. Nature of the data set: Induction of mitochondrial membrane potential loss in rat H9c2 cells assessed as increase in fluorescence intensity at 10 uM in presence of rotenone by TMRM dye based assay. Format: cell-based.

What is called IC50 is the concentration needed to halve the response being measured. For `COc1cc2oc(-c3ccc(O)cc3O)c(C=O)c2c(O)c1CC=C(C)C`, half-maximal inhibition in [1] (IC50) was put at 303 µM.
A word on the inhibition: it is the share of the control response that was lost under treatment. For `Oc1ccc(/C=C/c2c3c(cc4c2[C@H](c2cc(O)cc(O)c2)[C@@H](c2ccc(O)cc2)O4)O[C@H](c2ccc(O)cc2)[C@H]3c2cc(O)cc(O)c2)cc1`, the half-inhibitory concentration (IC50) in data set [1] came out at 162 µM. Further, in the data set listed under Mus musculus [2], the inhibition was determined as 50%.
On to `O=c1c(O)c(-c2ccc(O)c(O)c2)oc2cc(O)cc(O)c12` [QUERCETIN], for which the half-maximal inhibitory concentration (IC50) in data set [1] was determined as 128 µM.
For `Oc1ccc(/C=C/c2cc(O)cc(O)c2)cc1` [RESVERATROL], half-maximal inhibition in [1] (IC50) was put at 65.6 µM.
In the case of `COc1ccc(Cn2nc(-c3ccccc3)c3cc(Nc4ccc(N5CCN(C)CC5)cc4)nc(N4CCOCC4)c32)cc1`, the result with Mus musculus [3], in the data set on Mus musculus [4], in the data set on Mus musculus [5], in the data set on Mus musculus [6], in the data set on H9c2 [9] and with Mus musculus [10] was Active. Besides, the outcome in the data set with Mus musculus [11], in the data set with Mus musculus [14], in the data set on Mus musculus [17], in the data set on Mus musculus [19] and in the data set on Mus musculus [20] was Active. Also, the concentration for half-maximal inhibition (IC50) in data set [1] is 98.5 µM. Moreover, the Activity result in the data set on H9c2 [7] is reported as “Non-Toxic”; in the data set on Mus musculus [8], 23.1%; in the data set on H9c2 [12], “Non-Toxic”; with Mus musculus [13], 25.6%; with Mus musculus [16], 40.4%. Further, the inhibition entry in the data set listed under Mus musculus [15] is “Active”. In addition, in the data set with H9c2 [18], the result was inactive.
With `COc1ccc(Cn2nc(-c3cccc(F)c3)c3cc(Nc4ccc(N5CCN(C)CC5)cc4)nc(N4CCN(C)CC4)c32)cc1`, in the data set on H9c2 [21], the result was Active. The Activity entry is listed as “Toxic” with H9c2 [22] and “Non-Toxic” in the data set on H9c2 [23]. Moreover, in data set [1], half-maximal inhibition (IC50) was put at 164 µM. Also, the inhibition entry in the data set filed under Mus musculus [15] was “Active”.
Regarding `CC[C@@H]1/C=C/C=C/C[C@H](C)[C@@H](O)[C@](C)(O)C(=O)[C@H](C)[C@@H](O)[C@H](C)C(=O)[C@H](C)[C@@H](O)[C@H](C)/C=C/C(=O)O[C@H]2[C@@H](C)[C@@H](CC1)O[C@@]1(CC[C@@H](C)[C@@H](C[C@H](C)O)O1)[C@@H]2C`, the outcome with H9c2 [24], in the data set on H9c2 [26] and in the data set with H9c2 [27] was inactive. Half-maximal inhibition in data set [1] (IC50) required 18.5 µM. For the same compound, the outcome with H9c2 [25] was Active.

The record behind these values is ChEMBL document CHEMBL5390279, “Hydrolytic Activity of Mitochondrial F1FO-ATP Synthase as a Target for Myocardial Ischemia-Reperfusion Injury: Discovery and In Vitro and In Vivo Evaluation of Novel Inhibitors” (J Med Chem, 2023).
